Source: patent publication US20250163052A1, “cGAS INHIBITORS AND USES THEREOF” (Cornell University, priority 2022, published 2025)
Read-outs that look alike come from different tables or passages of the source. Blank lines part the entries; values can stand above or below the compound they belong to.

Assays:
NFkB-SEAP = experiment: THP1-Dual cells transfected with DNA, nfkb expression (Quantiblue); type: cell-based; details: Homo sapiens; for inhibition at 10 µM: THP-1, 10 μM; for inhibition at 30 µM: THP-1, 30 μM
Procedure, shortened: (§1)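 Readouts after overnight incubation: Quantiluc luminescence for Ifnb, Quantiblue for nfkb (both in supernatant) and CellTiter-Glo for viability. Before the DNA stimulus (2 ug/ml, lipofectamine transfection), THP1-Dual cells received compound at several dilutions for 4 h.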

h-cGAS = h-cGAS (Homo sapiens, UniProt Q8N884); experiment: Cell-free human cGAS enzyme inhibition assay (ATP depletion, Kinase-Glo Max); type: biochemical; details: 3 h; for inhibition at 1 µM: read-out: h-cGAS, conc. 1 μM; for inhibition at 10 µM: read-out: h-cGAS, conc. 10 μM
h-cGAS, sequence (Q8N884 whole entry): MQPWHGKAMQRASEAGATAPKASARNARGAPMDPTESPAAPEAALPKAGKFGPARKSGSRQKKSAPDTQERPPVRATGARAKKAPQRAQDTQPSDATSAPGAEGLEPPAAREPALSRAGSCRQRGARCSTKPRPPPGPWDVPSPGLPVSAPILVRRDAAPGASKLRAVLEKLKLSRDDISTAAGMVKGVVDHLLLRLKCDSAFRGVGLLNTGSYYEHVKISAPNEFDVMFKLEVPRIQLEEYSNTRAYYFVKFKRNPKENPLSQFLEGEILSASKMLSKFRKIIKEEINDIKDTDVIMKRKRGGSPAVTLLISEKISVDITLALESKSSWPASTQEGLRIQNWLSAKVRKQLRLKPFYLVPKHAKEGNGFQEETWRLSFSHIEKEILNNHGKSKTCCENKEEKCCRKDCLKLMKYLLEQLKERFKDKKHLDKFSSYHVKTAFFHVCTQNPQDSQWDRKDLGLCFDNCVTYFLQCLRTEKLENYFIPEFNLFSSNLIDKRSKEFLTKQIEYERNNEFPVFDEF

m-cGAS = m-cGAS (Mus musculus, UniProt Q8C6L5); experiment: Cell-free mouse cGAS enzyme inhibition assay (ATP depletion, Kinase-Glo Max); type: biochemical; details: 1 h; for inhibition at 10 µM: read-out: m-cGAS, conc. 10 μM
m-cGAS, sequence (Q8C6L5 whole entry): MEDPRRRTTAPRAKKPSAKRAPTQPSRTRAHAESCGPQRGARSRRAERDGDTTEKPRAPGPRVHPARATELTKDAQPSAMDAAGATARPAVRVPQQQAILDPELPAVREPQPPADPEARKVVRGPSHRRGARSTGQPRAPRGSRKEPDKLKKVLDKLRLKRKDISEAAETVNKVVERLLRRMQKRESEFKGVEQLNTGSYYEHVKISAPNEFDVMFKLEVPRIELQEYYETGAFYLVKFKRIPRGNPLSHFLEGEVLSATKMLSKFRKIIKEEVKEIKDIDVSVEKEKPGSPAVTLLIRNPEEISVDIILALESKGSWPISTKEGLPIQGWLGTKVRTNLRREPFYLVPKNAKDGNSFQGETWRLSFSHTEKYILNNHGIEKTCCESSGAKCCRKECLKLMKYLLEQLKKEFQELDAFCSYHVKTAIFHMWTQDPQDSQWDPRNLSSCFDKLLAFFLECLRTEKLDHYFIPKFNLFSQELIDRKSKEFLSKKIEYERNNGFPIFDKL

[1] = Protein binding in mouse brain homogenates; type: in vitro ADME; details: for recovery at 6 h / fraction unbound at 6 hr: brain homogenate; for fraction unbound at 6 hr: read-out: % BoundBrain (converted)
IFNB = experiment: THP1-Dual cells transfected with DNA, Ifnb expression (Quantiluc); type: cell-based; details: Homo sapiens; for inhibition at 10 µM: THP-1, 10 μM; for inhibition at 30 µM: THP-1, 30 μM
Procedure, shortened: as §1

[2] = Metabolic stability in human liver microsomes
[3] = Metabolic stability in mouse liver microsomes; details: for Remaining (NCF = 60 min) / Remaining (T = 60 min): mouse liver microsomes; for Remaining (NCF = 60 min): no co-factor (no NADPH); for Remaining (T = 60 min): 60 min with NADPH; for CLint scaled / half-life / microsomal CLint: mouse, liver microsomes
THP1 cells = experiment: THP1-Dual cells, cell viability (CellTiter-Glo); type: cell-based
Procedure, shortened: as §1

PDE4D2 = PDE4D2 (Homo sapiens, UniProt Q08499); experiment: Safety panel screening, PDE4D2 IMAP; type: biochemical; details: read-out: Mean percentage inhibition (%) at 10 μM, PDE4D2
PDE4D2, sequence (Q08499 303-809): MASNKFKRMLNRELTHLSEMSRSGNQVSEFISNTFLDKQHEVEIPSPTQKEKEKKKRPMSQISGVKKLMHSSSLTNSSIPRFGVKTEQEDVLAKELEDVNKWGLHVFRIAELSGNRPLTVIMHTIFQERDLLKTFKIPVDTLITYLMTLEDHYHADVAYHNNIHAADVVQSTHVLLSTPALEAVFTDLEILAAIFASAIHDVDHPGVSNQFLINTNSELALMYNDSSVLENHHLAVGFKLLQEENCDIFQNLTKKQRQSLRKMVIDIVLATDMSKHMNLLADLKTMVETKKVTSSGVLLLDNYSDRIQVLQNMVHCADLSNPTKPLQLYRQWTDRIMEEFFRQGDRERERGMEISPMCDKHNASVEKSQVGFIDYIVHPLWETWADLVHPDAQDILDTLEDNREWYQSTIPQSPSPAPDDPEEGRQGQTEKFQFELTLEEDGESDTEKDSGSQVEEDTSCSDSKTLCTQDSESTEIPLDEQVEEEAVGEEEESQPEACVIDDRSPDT

hERG = hERG (Homo sapiens, UniProt Q12809); experiment: Safety panel screening, hERG automated patch clamp; type: cell-based; details: read-out: Mean percentage inhibition (%) at 10 μM, hERG
hERG, sequence (Q12809 whole entry): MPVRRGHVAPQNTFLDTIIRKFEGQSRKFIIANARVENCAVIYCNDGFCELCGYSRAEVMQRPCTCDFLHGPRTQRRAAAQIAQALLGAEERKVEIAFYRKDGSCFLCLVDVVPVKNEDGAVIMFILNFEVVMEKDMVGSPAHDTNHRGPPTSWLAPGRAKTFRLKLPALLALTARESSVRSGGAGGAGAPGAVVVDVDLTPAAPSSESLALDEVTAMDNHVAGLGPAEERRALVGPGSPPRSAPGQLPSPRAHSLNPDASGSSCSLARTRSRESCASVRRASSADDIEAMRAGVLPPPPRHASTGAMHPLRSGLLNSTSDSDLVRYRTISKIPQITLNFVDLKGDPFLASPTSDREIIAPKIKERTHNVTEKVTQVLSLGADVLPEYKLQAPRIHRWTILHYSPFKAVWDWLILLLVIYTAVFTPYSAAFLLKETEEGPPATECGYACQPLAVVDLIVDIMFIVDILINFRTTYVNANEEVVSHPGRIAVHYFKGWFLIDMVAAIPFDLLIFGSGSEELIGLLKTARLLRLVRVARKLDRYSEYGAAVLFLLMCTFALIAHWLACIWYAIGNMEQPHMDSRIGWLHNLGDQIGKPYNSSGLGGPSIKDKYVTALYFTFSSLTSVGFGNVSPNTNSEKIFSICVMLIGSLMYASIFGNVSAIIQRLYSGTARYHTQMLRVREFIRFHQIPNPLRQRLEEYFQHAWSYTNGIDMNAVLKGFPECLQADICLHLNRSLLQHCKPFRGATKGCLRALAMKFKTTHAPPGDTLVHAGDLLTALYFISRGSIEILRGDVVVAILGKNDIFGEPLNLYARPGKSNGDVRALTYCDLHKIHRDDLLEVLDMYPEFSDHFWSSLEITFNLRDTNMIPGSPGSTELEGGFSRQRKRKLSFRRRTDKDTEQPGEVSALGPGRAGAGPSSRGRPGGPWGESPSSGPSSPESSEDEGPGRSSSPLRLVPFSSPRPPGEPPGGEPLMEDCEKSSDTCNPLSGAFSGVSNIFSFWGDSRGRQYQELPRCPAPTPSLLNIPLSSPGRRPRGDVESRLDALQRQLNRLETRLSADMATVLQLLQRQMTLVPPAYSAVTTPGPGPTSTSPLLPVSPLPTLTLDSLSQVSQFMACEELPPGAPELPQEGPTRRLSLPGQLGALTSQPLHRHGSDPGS

D1 = D1 (Homo sapiens, UniProt P21728); experiment: Safety panel screening, D1 cAMP assay; type: cell-based
D1, sequence (P21728 whole entry): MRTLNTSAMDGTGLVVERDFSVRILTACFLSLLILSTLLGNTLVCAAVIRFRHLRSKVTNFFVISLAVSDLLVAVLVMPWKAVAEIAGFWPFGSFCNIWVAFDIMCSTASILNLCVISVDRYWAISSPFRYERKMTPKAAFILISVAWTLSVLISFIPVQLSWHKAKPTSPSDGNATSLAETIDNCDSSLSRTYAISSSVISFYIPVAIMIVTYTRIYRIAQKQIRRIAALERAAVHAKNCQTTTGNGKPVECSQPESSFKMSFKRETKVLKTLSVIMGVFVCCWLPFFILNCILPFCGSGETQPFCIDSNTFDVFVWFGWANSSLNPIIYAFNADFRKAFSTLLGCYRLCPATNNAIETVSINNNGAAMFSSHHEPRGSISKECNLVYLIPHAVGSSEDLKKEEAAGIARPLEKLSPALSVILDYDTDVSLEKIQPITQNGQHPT

[4] = Pharmacokinetic study, plasma and brain PK parameters after I.P. dosing; type: in vivo, mouse; details: 25 mg/Kg I.P.; for Kp: brain/plasma, 25 mg/kg
Description: To test pharmacokinetics, TDI-6570 ([…] solution in water containing 0.2% Tween 80) was administered to 8-weeks old CD-1 male mice (n=3 for each time point) intraperitoneally (IP) and both plasma (EDTA-K2) and brain tissues were collected at various time points (0.5, 2, 4, 8 and 24 hours post drug administration). Transcardial perfusion were performed with saline prior to brain collection. Bioanalysis of brain tissue and plasma extracts were performed by LC-MS/MS.

5HT2B = 5HT2B (Homo sapiens, UniProt P41595); experiment: Safety panel screening, 5HT2B Ca2+ mobilization; type: cell-based
5HT2B, sequence (P41595 whole entry, species assumed): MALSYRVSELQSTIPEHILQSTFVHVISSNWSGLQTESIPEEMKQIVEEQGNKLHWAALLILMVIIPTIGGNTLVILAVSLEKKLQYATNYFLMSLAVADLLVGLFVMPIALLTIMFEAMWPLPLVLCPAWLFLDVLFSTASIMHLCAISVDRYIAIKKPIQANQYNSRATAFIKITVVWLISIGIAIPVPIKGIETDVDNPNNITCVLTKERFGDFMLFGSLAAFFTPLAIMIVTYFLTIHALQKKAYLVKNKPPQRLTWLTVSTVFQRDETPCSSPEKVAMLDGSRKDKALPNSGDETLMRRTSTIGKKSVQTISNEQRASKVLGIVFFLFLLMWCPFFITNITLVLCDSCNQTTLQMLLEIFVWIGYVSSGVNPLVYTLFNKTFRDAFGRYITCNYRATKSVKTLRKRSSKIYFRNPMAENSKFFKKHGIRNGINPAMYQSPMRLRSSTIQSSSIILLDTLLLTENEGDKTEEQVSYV

SET = SET (Homo sapiens, UniProt P31645); experiment: Safety panel screening, serotonin transporter neurotransmitter uptake; type: cell-based; details: read-out: Mean percentage inhibition (%) at 10 μM, SET
SET, sequence (P31645 whole entry): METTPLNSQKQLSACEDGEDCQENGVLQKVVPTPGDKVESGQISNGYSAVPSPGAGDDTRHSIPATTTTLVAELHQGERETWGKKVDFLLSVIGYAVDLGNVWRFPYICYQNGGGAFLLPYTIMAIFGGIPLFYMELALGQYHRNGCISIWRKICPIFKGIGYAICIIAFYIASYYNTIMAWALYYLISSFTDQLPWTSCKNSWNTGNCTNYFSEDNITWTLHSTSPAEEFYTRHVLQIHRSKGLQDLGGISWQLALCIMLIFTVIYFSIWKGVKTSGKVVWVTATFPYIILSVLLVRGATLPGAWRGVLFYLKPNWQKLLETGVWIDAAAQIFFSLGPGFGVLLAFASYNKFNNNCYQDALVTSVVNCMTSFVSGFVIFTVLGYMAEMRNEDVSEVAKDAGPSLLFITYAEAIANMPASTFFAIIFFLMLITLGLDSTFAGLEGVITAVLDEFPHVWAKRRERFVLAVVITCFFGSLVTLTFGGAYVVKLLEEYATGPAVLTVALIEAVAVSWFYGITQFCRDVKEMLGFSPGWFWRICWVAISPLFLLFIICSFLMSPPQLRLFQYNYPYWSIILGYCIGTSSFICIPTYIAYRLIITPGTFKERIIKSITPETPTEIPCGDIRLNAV

inhibition at 1 µM (h-cGAS): 0 to 24%
inhibition at 10 µM (h-cGAS): 25 to 49%
inhibition at 1 µM (m-cGAS; read-out: m-cGAS, conc. 1 μM): 25 to 49%
inhibition at 10 µM (m-cGAS): 75 to 100%
LogK [1]: 1.12
% Remaining at 6 hr [1]: 98.24%
recovery at 6 h [1]: 92.8%
fraction unbound at 6 hr [1]: 0.0706
Remaining (NCF = 60 min) ([2]; human liver microsomes, 60 min, no co-factor (no NADPH)): 89.2%
Remaining (T = 60 min) ([2]; human liver microsomes, 60 min with NADPH): 93.6%
CLint scaled ([2]; human, liver microsomes): < 8.6 mL/min/kg
half-life ([2]; human, liver microsomes): > 145 min
microsomal CLint ([2]; human, liver microsomes): < 9.6 µL/min/mg
Remaining (NCF = 60 min) [3]: 97.8%
Remaining (T = 60 min) [3]: 84.8%
CLint scaled [3]: < 38 mL/min/kg
half-life [3]: > 145 min
microsomal CLint [3]: < 9.6 µL/min/mg
SMILES: Cn1cc(-c2cc(Cl)c(Cl)c3sc4c(c23)CCN(C(=O)CN)C4)cn1 [Compound 74]
inhibition at 10 µM (NFkB-SEAP): 25 to 49%
inhibition at 30 µM (NFkB-SEAP): 50 to 74%
inhibition at 10 µM (IFNB): 75 to 100%
inhibition at 30 µM (IFNB): 75 to 100%
Cell viability 10 μM (THP1 cells): +++ (+, ++, and +++ mean the compound respectively shows 25-49%; 50-74%; or 75-100% viability to cells)
Cell viability 30 μM (THP1 cells): − (Cell viability <24%, in THP1 cells is expressed as “−”)

inhibition at 10 µM (h-cGAS): 0 to 24%
inhibition at 10 µM (m-cGAS): 0 to 24%
LogK [1]: 0.64
% Remaining at 6 hr [1]: 99.35%
recovery at 6 h [1]: 90.1%
fraction unbound at 6 hr [1]: 0.19
SMILES: Cn1cc(-c2cc(Cl)c(Cl)c3nc4c(n23)CN(C(=O)CO)CC4)cn1 [Compound 99]

inhibition at 1 µM (h-cGAS): 0 to 24%
inhibition at 10 µM (h-cGAS): 50 to 74%
inhibition at 10 µM (m-cGAS): 0 to 24%
LogK [1]: >4.17
% Remaining at 6 hr [1]: 92.46%
recovery at 6 h [1]: < 91.1%
fraction unbound at 6 hr [1]: < 0.0001
AUC_%Extrap_obs (Brain) ([4]; brain): 0.813%
AUClast/D (Brain) ([4]; brain): 5081 mg·h/mL
Cmax (Brain) ([4]; brain): 19853 ng/mL
Kp ([4]; mouse, ip, read-out: AUClast Ratio (brain/plasma)): 3.79
Kp ([4]; mouse, ip, read-out: Cmax Ratio (brain/plasma)): 3.14
AUC(0-inf) ([4]; mouse, ip, brain, read-out: AUCInf (Brain)): 128000 ng·h/mL
AUC(0-t) ([4]; mouse, ip, brain, read-out: AUClast (Brain)): 127000 ng·h/mL
MRT inf ([4]; mouse, ip, brain, read-out: MRTInf_obs (Brain)): 4.69 h
half-life ([4]; mouse, ip, brain, read-out: T1/2 (Brain) (converted)): 207 min
Tmax ([4]; mouse, ip, brain, read-out: Tmax (Brain)): 2 h
Cmax ([4]; mouse, ip, plasma): 6320 ng/mL
AUC(0-inf) ([4]; mouse, ip, plasma, read-out: AUCInf (plasma)): 33500 ng·h/mL
AUC(0-t) ([4]; mouse, ip, plasma, read-out: AUClast (plasma)): 33500 ng·h/mL
MRT inf ([4]; mouse, ip, plasma, read-out: MRTInf_obs (plasma)): 4.95 h
half-life ([4]; mouse, ip, plasma, read-out: T1/2 (plasma) (converted)): 272 min
Tmax ([4]; mouse, ip, plasma, read-out: Tmax (plasma)): 1 h
AUC_%Extrap_obs (plasma) ([4]; plasma): 0.0394%
AUClast/D (plasma) ([4]; plasma): 1339 mg·h/mL
Remaining (NCF = 60 min) [3]: 94.7%
Remaining (T = 60 min) [3]: 88.1%
CLint scaled [3]: 87.2 mL/min/kg
half-life [3]: 2 min
microsomal CLint [3]: 679 µL/min/mg
SMILES: Cn1cc(-c2cc(Cl)c(Cl)c3sc4c(c23)CN(C(=O)CO)CC4)cn1 [Compound 48]
inhibition at 10 µM (NFkB-SEAP): < 24%
inhibition at 30 µM (NFkB-SEAP): 50 to 74%
inhibition at 10 µM (PDE4D2): 56.4%
inhibition at 10 µM (hERG): 63%
Agonist Mode Mean percentage activation (%) at 10 μM, D1 (D1; agonist mode): 4.36%
inhibition at 10 µM (D1; antagonist mode, read-out: Antagonist Mode Mean percentage inhibition (%) at 10 μM, D1): 6.62%
inhibition at 10 µM (IFNB): 25 to 49%
inhibition at 30 µM (IFNB): 50 to 74%
Agonist Mode Mean percentage activation (%) at 10 μM, 5HT2B (5HT2B; agonist mode): −0.48%
inhibition at 10 µM (5HT2B; antagonist mode, read-out: Antagonist Mode Mean percentage inhibition (%) at 10 μM, 5HT2B): 34.5%
inhibition at 10 µM (SET): 46.2%
Cell viability 10 μM (THP1 cells): +++ (+, ++, and +++ mean the compound respectively shows 25-49%; 50-74%; or 75-100% viability to cells)
Cell viability 30 μM (THP1 cells): +++ (+, ++, and +++ mean the compound respectively shows 25-49%; 50-74%; or 75-100% viability to cells)
